Measured values: patent publication EP3441475A1, “NEUTRAL HEAT-SENSITIVE SERINE PROTEASE DERIVED FROM O. CORVINA” (priority 2017, dated 2019)
Where two headings read alike, the source gives them in different places.

Target: T1, NHSSP (Onygena corvina, UniProt A0A0B4VM82)
T1 sequence (A0A0B4VM82 113-391): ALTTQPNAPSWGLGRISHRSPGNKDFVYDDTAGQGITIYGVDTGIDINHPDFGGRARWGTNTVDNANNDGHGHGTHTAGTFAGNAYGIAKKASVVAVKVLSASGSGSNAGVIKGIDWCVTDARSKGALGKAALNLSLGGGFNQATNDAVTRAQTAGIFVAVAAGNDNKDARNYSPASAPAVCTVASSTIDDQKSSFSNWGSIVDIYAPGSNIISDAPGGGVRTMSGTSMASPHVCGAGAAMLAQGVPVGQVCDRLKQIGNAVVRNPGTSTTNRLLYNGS
Test: biochemical
Type: biochemical
Description: The influence of different inhibitors on the enzymatic activity of NHSSP was determined by hydrolysis of azocasein in Britton-Robinson buffer pH 6.5 supplemented with appropriate substances. The reaction was stopped by the addition of TCA to the final concentration of 293 mM, centrifuged as described above, and the absorbance of supernatants was measured at 450 nm.
The enzymatic reaction was carried out at 40°C with a final inhibitor concentration of 1 mM.

[1] = final inhibitor concentration of 1 mM, 40°C, pH 6.5
[2] = remaining NHSSP activity, final inhibitor concentration of 1 mM, 40°C, Britton-Robinson buffer pH 6.5, read-out: Activity (%)

SMILES | inhibition of NHSSP protease activity (in words) [1] | Activity (%) (remaining NHSSP activity, final inhibitor concentration of 1 mM, 40°C, Britton-Robinson buffer pH 6.5) | activity at 1000 µM (pH 6.5) [%] | inhibition of NHSSP protease activity (in words) (pH 6.5) | activity at 1000 µM [2] [%]
O=S(=O)(F)Cc1ccccc1 [PMSF, phenylmethylsulfonyl fluoride] | identified as an inhibitor of NHSSP | 40 | – | – | –
O=C(O)CN(CCN(CC(=O)O)CC(=O)O)CC(=O)O [EDTA, ethylenediamine tetraacetate] | – | – | 100 | did not significantly inhibit protease activity | –
O=C(O)CCP(CCC(=O)O)CCC(=O)O [TCEP] | did not significantly inhibit protease activity | – | – | – | 97
OCCS [2-ß ME, ß-mercaptoethanol] | did not significantly inhibit protease activity | – | – | – | 99
